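Each compound was tested at five concentrations against cells in 96-well plates for 48 hours. GI50 marks 50% less growth.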 The source made the active and inactive calls. Cut-off read from the data, not from the text of the source: active = GI50 up to about 1.1 µM and inactive = higher.
Assays:
Assay in all cases: NCI anticancer screen, dose series, 48 h
HCC 2998 = tested on: HCC 2998
MOLT-4 = tested on: MOLT-4
KM12 = tested on: KM12
K562 = tested on: K562
T47D = tested on: T47D
PC-3 = tested on: PC-3
MDA-MB-231 = tested on: MDA-MB-231
MDA-MB-435 = tested on: MDA-MB-435
CAKI-1 = tested on: CAKI-1
OVCAR-3 = tested on: OVCAR-3
SN12C = tested on: SN12C
SF-539 = tested on: SF-539
DU-145 = tested on: DU-145
MDA-N = tested on: MDA-N
DMS-114 = tested on: DMS-114
OVCAR-8 = tested on: OVCAR-8
UACC-62 = tested on: UACC-62
SK-OV-3 = tested on: SK-OV-3
HT-29 = tested on: HT-29
Hs-578T = tested on: Hs-578T

Structure (SMILES) | GI50 (HCC 2998) | GI50 (MOLT-4) | GI50 (KM12) | GI50 (K562) | GI50 (T47D) | GI50 (PC-3) | GI50 (MDA-MB-231) | GI50 (MDA-MB-435) | GI50 (CAKI-1) | GI50 (OVCAR-3) | GI50 (SN12C) | GI50 (SF-539) | GI50 (DU-145) | GI50 (MDA-N) | GI50 (DMS-114) | GI50 (OVCAR-8) | GI50 (UACC-62) | GI50 (SK-OV-3) | GI50 (HT-29) | GI50 (Hs-578T)
COc1cccc2c1C(=O)c1c(O)c3c(c(O)c1C2=O)C[C@@](O)(C(=O)CO)CC3OC1CC(O)C(O)C(C)O1 (some centres not stated) | 0.562 µM (active) | 0.0202 µM (active) | 0.35 µM (active) | 0.239 µM (active) | 0.286 µM (active) | 0.274 µM (active) | 0.565 µM (active) | 0.834 µM (active) | 0.185 µM (active) | 0.583 µM (active) | 0.115 µM (active) | < 0.0358 µM (active) | 0.0294 µM (active) | 0.562 µM (active) | 0.188 µM (active) | 0.256 µM (active) | 0.125 µM (active) | 0.235 µM (active) | 0.354 µM (active) | –
Cc1ccccc1-n1c(CCl)nc2ccc(Br)cc2c1=O | 16.8 µM (inactive) | 19.8 µM (inactive) | 13.6 µM (inactive) | 0.354 µM (active) | – | – | – | – | 1.77 µM (inactive) | 14.2 µM (inactive) | 0.434 µM (active) | 7.16 µM (inactive) | – | – | 7.46 µM (inactive) | 12.5 µM (inactive) | 4.4 µM (inactive) | 29.5 µM (inactive) | 4.29 µM (inactive) | –
COc1cccc2c1C(=O)c1c(O)c3c(c(O)c1C2=O)C[C@@](O)(/C(C)=N\O)C[C@@H]3OC1CC(N)C(O)C(C)O1 (some centres not stated) | 0.834 µM (active) | 0.0661 µM (active) | 2.39 µM (inactive) | 0.553 µM (active) | 0.723 µM (active) | 1.36 µM (inactive) | 2.51 µM (inactive) | 8.45 µM (inactive) | 1.93 µM (inactive) | 1.45 µM (inactive) | 0.741 µM (active) | 0.931 µM (active) | 1.72 µM (inactive) | 1.88 µM (inactive) | 0.371 µM (active) | 1.15 µM (inactive) | 1.12 µM (inactive) | 2.23 µM (inactive) | 1.34 µM (inactive) | 1.77 µM (inactive)
